The structures appear in SMILES notation.

This note sets out measurements from US20250170248A1, “SMARCA DEGRADERS AND USES THEREOF” (Kymera Therapeutics, Inc., priority 2021, published 2025).

Assay type in all cases: cell-based
Assay [1] deals with T1, SMARCA2 (Homo sapiens, UniProt P51531). The assay is described as follows: SMARCA2 Western blot degradation in MV4-11 cells. Details: SMARCA2/SMARCA4 protein degradation selectivity in MV4-11 cells; endogenous in cells; host or cells: MV4-11. As to conditions: for Dmax: MV4-11, MV4-11 cells, read-out: SMARCA2 MSD MV411 degradation 24 h: average Dmax %; for Dmax / DC50 / SMARCA2 MSD MV411 degradation 24 h: average Dmax %: 24 h; for DC50 / Selectivity in MV411 / SMARCA2 MSD MV411 degradation 24 h: average Dmax %: MV4-11 cells; for DC50: read-out: SMARCA2 MSD MV411 degradation 24 h: Mean external-Abs DC50; for Selectivity in MV411: SMARCA2/4 selectivity.

The target in another assay is T2, SMARCA4 (Homo sapiens, UniProt P51532).
T2 construct: SMARCA2/SMARCA4 protein degradation selectivity in MV4-11 cells; endogenous in cells; host or cells: MV4-11
The assay is described as follows: SMARCA4 Western blot degradation in MV4-11 cells. Conditions: for Dmax: MV4-11, MV4-11 cells, read-out: SMARCA4 MSD MV411 degradation 24 h: average Dmax %; for Dmax / DC50: 24 h; for DC50 / SMARCA4 MSD MV411 degradation 24 h: average Dmax %: MV4-11 cells; for DC50: read-out: SMARCA4 MSD MV411 degradation 24 h: Mean external-Abs DC50. The gist of the method: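 Fluorescent LI-COR imaging of Western blots quantified SMARCA2 and SMARCA4 protein remaining in MV4-11 cells after 24 h of compound treatment. β-actin was the loading control, and DC50, Dmax and SMARCA2/4 selectivity are given as letter-coded ranges.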

In assay [2] the target is T1, SMARCA2. The assay is described as follows: MSD SMARCA2 degradation in A549 cell line. As to conditions: for SMARCA2 MSD A549 degradation 24 h: Average Dmax % / DC50: A549 cells; for DC50 / Dmax: 24 h; for DC50: read-out: SMARCA2 MSD A549 degradation 24 h: Average external-Abs DC50; for Dmax: A549, A549 cells. The gist of the method:
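SMARCA2 protein remaining after 24 h exposure of A549 cells (top concentration 1000 nM, 3-fold dilutions) was measured by MSD electrochemiluminescence immunoassay of cell lysates. Results are given as binned DC50 and maximal degradation (Dmax) codes.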

T1 sequence (P51531 whole entry): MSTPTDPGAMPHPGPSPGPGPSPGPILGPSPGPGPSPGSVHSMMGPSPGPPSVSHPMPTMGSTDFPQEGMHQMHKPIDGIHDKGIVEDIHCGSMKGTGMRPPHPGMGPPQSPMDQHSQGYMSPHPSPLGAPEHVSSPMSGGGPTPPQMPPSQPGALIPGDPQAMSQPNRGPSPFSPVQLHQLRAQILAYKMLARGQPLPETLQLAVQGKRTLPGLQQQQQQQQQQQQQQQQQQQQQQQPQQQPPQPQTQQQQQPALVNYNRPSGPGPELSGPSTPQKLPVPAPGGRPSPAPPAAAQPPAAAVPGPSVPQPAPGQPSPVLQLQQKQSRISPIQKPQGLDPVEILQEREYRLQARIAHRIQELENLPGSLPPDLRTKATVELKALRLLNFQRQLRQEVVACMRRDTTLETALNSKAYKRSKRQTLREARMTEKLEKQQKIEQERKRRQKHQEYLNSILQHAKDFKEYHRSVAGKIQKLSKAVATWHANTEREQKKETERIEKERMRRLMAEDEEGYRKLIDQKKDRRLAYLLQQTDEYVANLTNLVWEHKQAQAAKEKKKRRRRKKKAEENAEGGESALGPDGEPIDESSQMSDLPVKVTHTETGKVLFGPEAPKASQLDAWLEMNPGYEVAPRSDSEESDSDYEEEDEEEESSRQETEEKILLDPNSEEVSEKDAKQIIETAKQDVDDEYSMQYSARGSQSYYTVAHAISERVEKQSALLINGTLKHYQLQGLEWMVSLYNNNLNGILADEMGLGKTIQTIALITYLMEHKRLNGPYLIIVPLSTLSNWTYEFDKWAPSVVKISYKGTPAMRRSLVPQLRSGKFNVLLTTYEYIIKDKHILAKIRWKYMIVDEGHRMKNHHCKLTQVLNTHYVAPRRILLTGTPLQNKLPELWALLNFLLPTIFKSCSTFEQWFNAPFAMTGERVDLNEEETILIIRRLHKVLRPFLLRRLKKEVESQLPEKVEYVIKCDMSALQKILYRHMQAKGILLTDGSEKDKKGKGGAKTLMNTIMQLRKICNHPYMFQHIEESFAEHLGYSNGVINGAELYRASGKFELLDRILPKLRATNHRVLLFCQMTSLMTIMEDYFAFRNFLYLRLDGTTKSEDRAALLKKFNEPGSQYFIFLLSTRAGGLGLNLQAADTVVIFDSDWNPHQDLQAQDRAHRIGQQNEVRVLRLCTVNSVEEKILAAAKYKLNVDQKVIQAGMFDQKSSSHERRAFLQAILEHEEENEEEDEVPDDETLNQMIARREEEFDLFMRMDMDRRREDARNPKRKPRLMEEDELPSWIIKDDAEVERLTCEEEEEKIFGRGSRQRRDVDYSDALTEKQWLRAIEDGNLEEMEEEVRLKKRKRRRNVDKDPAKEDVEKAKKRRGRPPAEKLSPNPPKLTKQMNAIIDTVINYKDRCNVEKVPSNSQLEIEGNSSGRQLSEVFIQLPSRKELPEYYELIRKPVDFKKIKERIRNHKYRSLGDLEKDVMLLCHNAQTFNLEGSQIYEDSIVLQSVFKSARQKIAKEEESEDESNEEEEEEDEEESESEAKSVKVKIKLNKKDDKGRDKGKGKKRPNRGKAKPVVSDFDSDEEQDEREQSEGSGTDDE
T2 sequence (P51532 whole entry): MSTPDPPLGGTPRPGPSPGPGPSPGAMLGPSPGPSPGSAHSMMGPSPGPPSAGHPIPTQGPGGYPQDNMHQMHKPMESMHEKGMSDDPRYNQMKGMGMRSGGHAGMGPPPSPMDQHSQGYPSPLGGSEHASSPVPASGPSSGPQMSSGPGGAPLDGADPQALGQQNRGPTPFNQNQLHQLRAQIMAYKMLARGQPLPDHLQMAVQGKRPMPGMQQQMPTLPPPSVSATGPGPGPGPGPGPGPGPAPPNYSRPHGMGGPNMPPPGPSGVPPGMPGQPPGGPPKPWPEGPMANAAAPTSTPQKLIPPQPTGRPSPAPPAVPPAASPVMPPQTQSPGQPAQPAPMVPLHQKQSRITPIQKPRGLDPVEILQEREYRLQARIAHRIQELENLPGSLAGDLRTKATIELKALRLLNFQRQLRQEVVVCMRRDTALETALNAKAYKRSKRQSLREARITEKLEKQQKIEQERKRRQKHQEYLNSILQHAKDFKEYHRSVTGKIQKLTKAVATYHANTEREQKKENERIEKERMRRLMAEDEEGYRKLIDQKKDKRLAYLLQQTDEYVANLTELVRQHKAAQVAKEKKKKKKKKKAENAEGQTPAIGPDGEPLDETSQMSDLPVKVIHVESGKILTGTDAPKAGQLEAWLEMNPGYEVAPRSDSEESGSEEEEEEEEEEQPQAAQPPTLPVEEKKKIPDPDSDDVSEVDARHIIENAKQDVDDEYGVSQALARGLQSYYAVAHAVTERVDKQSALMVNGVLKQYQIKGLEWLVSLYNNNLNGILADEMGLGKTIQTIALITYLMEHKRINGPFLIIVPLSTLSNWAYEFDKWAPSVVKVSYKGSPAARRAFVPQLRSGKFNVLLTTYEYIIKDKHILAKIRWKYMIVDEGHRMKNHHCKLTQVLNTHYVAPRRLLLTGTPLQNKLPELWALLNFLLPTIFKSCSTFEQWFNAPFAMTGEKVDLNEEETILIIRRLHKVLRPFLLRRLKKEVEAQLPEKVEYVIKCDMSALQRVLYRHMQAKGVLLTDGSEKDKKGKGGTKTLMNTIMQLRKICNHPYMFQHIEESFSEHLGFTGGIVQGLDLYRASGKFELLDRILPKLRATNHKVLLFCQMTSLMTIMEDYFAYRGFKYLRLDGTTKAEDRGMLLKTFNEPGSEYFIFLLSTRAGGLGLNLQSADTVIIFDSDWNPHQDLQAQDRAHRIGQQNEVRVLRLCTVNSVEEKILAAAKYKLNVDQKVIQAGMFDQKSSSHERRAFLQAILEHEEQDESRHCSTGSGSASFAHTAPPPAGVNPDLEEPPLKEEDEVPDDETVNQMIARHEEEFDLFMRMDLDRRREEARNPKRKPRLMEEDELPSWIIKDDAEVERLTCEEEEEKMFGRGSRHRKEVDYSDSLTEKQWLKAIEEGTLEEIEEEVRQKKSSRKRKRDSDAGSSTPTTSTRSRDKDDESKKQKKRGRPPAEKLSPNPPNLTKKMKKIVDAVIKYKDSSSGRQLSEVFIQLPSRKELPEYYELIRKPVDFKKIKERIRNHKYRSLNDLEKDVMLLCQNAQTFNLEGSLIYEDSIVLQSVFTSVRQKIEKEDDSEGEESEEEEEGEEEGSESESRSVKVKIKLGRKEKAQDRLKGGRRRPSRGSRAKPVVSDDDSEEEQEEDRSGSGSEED

On to `Cc1cc(Cl)ccc1C#CCNC(=O)[C@@H]1C[C@@H](O)CN1C(=O)[C@@H](NC(=O)[C@H]1CCC2(CC1)C[C@H](N1CCC(c3cnc(N4CCN5c6cc(-c7ccccc7O)nnc6NC[C@H]5C4)nc3)CC1)C2)C(C)(C)C` (single isomer, unassigned) [I-104], for which, on SMARCA2 [1], the Dmax is under 50%, the 50% degradation concentration (DC50) is over 100 nM and the “Selectivity in MV411” value is listed as “C (C (10-100 fold))”. Besides, at SMARCA4, the Dmax lay within 70 to 90% and the DC50 is over 100 nM. Moreover, at SMARCA2 [2], the “SMARCA2 MSD A549 degradation 24 h: Average Dmax %” value was “A (A (>90% degradation))” and the DC50 was over 100 nM.
Regarding `C#Cc1ccc(CNC(=O)[C@@H]2C[C@@H](O)CN2C(=O)[C@@H](NC(=O)N2CC3(CC(N4CCC(c5cnc(N6CCc7[nH]c8nnc(-c9ccccc9O)cc8c7[C@@H]6C)nc5)CC4)C3)C2)C(C)(C)C)cc1` [I-228], on SMARCA2 [1], the Dmax was 70 to 90%, the DC50 was in the range of 10 to 100 nM and the “Selectivity in MV411” value was “D (D (<10 fold))”. Also, at SMARCA4, the Dmax is over 90% and the DC50 was over 100 nM. In addition, at SMARCA2 [2], the Dmax is over 90% and the DC50 was over 100 nM.
With `Cc1ncsc1-c1ccc(CNC(=O)[C@@H]2C[C@@H](O)CN2C(=O)C(c2cc(N3CCC4(CC3)CC(N3CCC(c5cnc(N6CCc7[nH]c8nnc(-c9ccccc9O)cc8c7[C@@H]6C)nc5)CC3)C4)no2)C(C)C)cc1` (single isomer, unassigned) [I-12], the Dmax at SMARCA2 [1] is 70 to 90%; at SMARCA4 it was over 90%; at SMARCA2 [2], 70 to 90%. In addition, the 50% degradation concentration (DC50) on SMARCA2 [1] lay within 10 to 100 nM; on SMARCA4, 10 to 100 nM; at SMARCA2 [2], 50 to 100 nM. Also, on SMARCA2 [1], the “Selectivity in MV411” value was “D (D (<10 fold))”.
As to `C#Cc1ccc([C@H](C)NC(=O)[C@@H]2C[C@@H](O)CN2C(=O)C(c2cc(N3CCC(CN4CCC(N5CCC(N6CCN7c8cc(-c9ccccc9O)nnc8NC[C@H]7C6)CC5)CC4)CC3)no2)C(C)C)c(Cl)c1` (stereo partly drawn) [I-324], at SMARCA2 [1], the greatest degradation seen (Dmax) is under 50%, the DC50 is over 100 nM and the “Selectivity in MV411” value was “C (C (10-100 fold))”. For the same compound, on SMARCA4, the Dmax is under 50% and the DC50 was over 100 nM. Moreover, at SMARCA2 [2], the Dmax is under 50% and the DC50 is over 100 nM.
As to `Cc1ncsc1-c1ccc(CNC(=O)[C@@H]2C[C@@H](O)CN2C(=O)C(c2cc(OC[C@H]3CC[C@@H](N4CCC(c5cnc(N6CCc7[nH]c8nnc(-c9ccccc9O)cc8c7[C@@H]6C)nc5)CC4)CC3)no2)C(C)C)cc1` (single isomer, unassigned) [I-16], at SMARCA2 [1], the Dmax is over 90%, the DC50 lay within 1 to 10 nM and the “Selectivity in MV411” value is reported as “D (D (<10 fold))”. Also, at SMARCA4, the Dmax is 70 to 90% and the DC50 is 10 to 100 nM. Moreover, at SMARCA2 [2], the Dmax lay within 70 to 90% and the DC50 was 50 to 100 nM.
For `C#Cc1ccc(CNC(=O)[C@@H]2C[C@@H](O)CN2C(=O)[C@H](NC(=O)N2CC3(CC(N4CCC(c5cnc(N6CCc7[nH]c8nnc(-c9ccccc9O)cc8c7[C@H]6C)nc5)CC4)C3)C2)C(C)(C)CCO)c(Cl)c1` (single isomer, unassigned) [I-316], the Dmax at SMARCA2 [1], at SMARCA4 and at SMARCA2 [2] was under 50% in each case. Also, the DC50 at SMARCA2 [1], on SMARCA4 and on SMARCA2 [2] was over 100 nM throughout. Further, the “Selectivity in MV411” value on SMARCA2 [1] is “C (C (10-100 fold))”.
Regarding `Cc1ncsc1-c1ccc(CNC(=O)[C@@H]2C[C@@H](O)CN2C(=O)[C@@H](NC(=O)C2(F)CC2)C(C)(C)C)c(O[C@H]2CC[C@H](N3CCC(c4cnc(N5CCc6[nH]c7nnc(-c8ccccc8O)cc7c6[C@@H]5C)nc4)CC3)CC2)c1` (single isomer, unassigned) [I-33], on SMARCA2 [1], the Dmax fell in the range of 50 to 70%, the DC50 fell in the range of 10 to 100 nM and the “Selectivity in MV411” value is recorded as “C (C (10-100 fold))”. Moreover, at SMARCA4, the greatest degradation seen (Dmax) is under 50% and the DC50 is over 100 nM. For the same compound, on SMARCA2 [2], the Dmax lay within 50 to 70% and the DC50 is over 100 nM.
For the compound `C#Cc1ccc(CNC(=O)[C@@H]2C[C@@H](O)CN2C(=O)[C@@H](NC(=O)N2CC3(CC(N4CCC(c5cnc(N6CCc7[nH]c8nnc(-c9ccccc9O)cc8c7[C@H]6C)nc5)CC4)C3)C2)C(C)(C)C)c(OCCCC(=O)O)c1` [I-145], on SMARCA2 [1], the Dmax is over 90%, the DC50 is under 1 nM and the “Selectivity in MV411” value is “C (C (10-100 fold))”. On SMARCA4, the Dmax is over 90% and the DC50 lay within 10 to 100 nM. On SMARCA2 [2], the Dmax was over 90% and the DC50 was in the range of 10 to 50 nM.
On to `C#Cc1ccc(CNC(=O)[C@@H]2C[C@@H](O)CN2C(=O)[C@@H](NC(=O)N2CCN(CC3CCN(c4cnc(N5CCc6[nH]c7nnc(-c8ccccc8O)cc7c6[C@@H]5C)nc4)CC3)CC2)C(C)(C)C)cc1` [I-160], for which, at SMARCA2 [1], the Dmax fell in the range of 70 to 90%, the DC50 was 10 to 100 nM and the “Selectivity in MV411” value was “D (D (<10 fold))”. At SMARCA4, the Dmax is over 90% and the DC50 is over 100 nM. Besides, at SMARCA2 [2], the Dmax was over 90% and the DC50 was over 100 nM.
In the case of `C#Cc1ccc([C@H](C)NC(=O)[C@@H]2C[C@@H](O)CN2C(=O)[C@@H](NC(=O)[C@H]2CC3(C2)C[C@H](N2CCC(N4CCC(N5CCN6c7cc(-c8ccccc8O)nnc7NC[C@H]6C5)CC4)CC2)C3)C(C)(C)C)cc1` (single isomer, unassigned) [I-226], on SMARCA2 [1], the “SMARCA2 MSD MV411 degradation 24 h: average Dmax %” value is on record as “B (B (>70-90% degradation))”, the DC50 is 10 to 100 nM and the “Selectivity in MV411” value was “B (B (>100-500 fold))”. At SMARCA4, the “SMARCA4 MSD MV411 degradation 24 h: average Dmax %” value is on record as “D (D (<50% degradation))” and the half-maximal degradation concentration (DC50) was over 100 nM. At SMARCA2 [2], the “SMARCA2 MSD A549 degradation 24 h: Average Dmax %” value is listed as “A (A (>90% degradation))” and the DC50 was over 100 nM.
As for `C#Cc1ccc(CNC(=O)[C@@H]2C[C@@H](O)CN2C(=O)[C@@H](NC(=O)[C@H]2CCC3(CC2)C[C@H](N2CCC(N4CCC(N5CCN6c7cc(-c8ccccc8O)nnc7NC[C@H]6C5)CC4)CC2)C3)C(C)(C)C)c(Cl)c1` (single isomer, unassigned) [I-221], on SMARCA2 [1], the Dmax fell in the range of 50 to 70%, the DC50 was 10 to 100 nM and the “Selectivity in MV411” value is reported as “C (C (10-100 fold))”. For the same compound, on SMARCA4, the Dmax was under 50% and the DC50 was over 100 nM. On SMARCA2 [2], the Dmax is over 90% and the 50% degradation concentration (DC50) is over 100 nM.
With `C#Cc1ccc([C@H](C)NC(=O)[C@@H]2C[C@@H](O)CN2C(=O)[C@@H](NC(=O)N2CC3(C2)CN(C2CCN(c4cnc(N5CCc6[nH]c7nnc(-c8ccccc8O)cc7c6[C@H]5C)nc4)CC2)C3)C(C)(C)C)cc1` [I-249], on SMARCA2 [1], the Dmax was over 90%, the DC50 fell in the range of 10 to 100 nM and the “Selectivity in MV411” value was “C (C (10-100 fold))”. For the same compound, on SMARCA4, the Dmax lay in the range of 70 to 90% and the 50% degradation concentration (DC50) was over 100 nM. Moreover, at SMARCA2 [2], the Dmax was over 90% and the DC50 lay within 10 to 50 nM.
With `C#Cc1ccc(CNC(=O)[C@@H]2C[C@@H](O)CN2C(=O)[C@@H](NC(=O)N2CC3(CC(N4CCC(N5CC6(CC(N7CCN8c9cc(-c%10ccccc%10O)nnc9NC[C@H]8C7)C6)C5)CC4)C3)C2)C(C)(C)C)cc1` [I-224], the values for the greatest degradation seen (Dmax) on SMARCA2 [1], at SMARCA4 and at SMARCA2 [2] were 70 to 90%, 70 to 90% and over 90%, respectively. For the same compound, the 50% degradation concentration (DC50) at SMARCA2 [1] was 1 to 10 nM; on SMARCA4, 10 to 100 nM; on SMARCA2 [2], 50 to 100 nM. Also, the “Selectivity in MV411” value on SMARCA2 [1] is given as “C (C (10-100 fold))”.
Regarding `Cc1ncsc1-c1ccc(CNC(=O)[C@@H]2C[C@@H](O)CN2C(=O)[C@@H](NC(=O)[C@H]2CC3(C2)C[C@H](N2CCC(c4ccnc(N5CCN6c7cc(-c8ccccc8O)nnc7NC[C@@H]6C5)n4)CC2)C3)C(C)(C)C)cc1` (single isomer, unassigned) [I-3], on SMARCA2 [1], the Dmax lay within 70 to 90%, the DC50 lay within 1 to 10 nM and the “Selectivity in MV411” value is on record as “A (A (>500 fold))”. For the same compound, at SMARCA4, the Dmax is 50 to 70% and the DC50 is over 100 nM. For the same compound, at SMARCA2 [2], the Dmax is 70 to 90% and the DC50 is over 100 nM.
Take `C#Cc1ccc(CNC(=O)[C@@H]2C[C@@H](O)CN2C(=O)[C@@H](NC(=O)[C@H]2CCC3(CC2)C[C@H](N2CCC(c4cnc(N5CCN6c7cc(-c8ccccc8O)nnc7NC[C@H]6C5)nc4)CC2)C3)C(C)(C)C)c(F)c1` (single isomer, unassigned) [I-116]: at SMARCA2 [1], the “SMARCA2 MSD MV411 degradation 24 h: average Dmax %” value is listed as “B (B (>70-90% degradation))”, the DC50 was in the range of 1 to 10 nM and the “Selectivity in MV411” value was “B (B (>100-500 fold))”. For the same compound, at SMARCA4, the “SMARCA4 MSD MV411 degradation 24 h: average Dmax %” value is reported as “D (D (<50% degradation))” and the DC50 was over 100 nM. On SMARCA2 [2], the “SMARCA2 MSD A549 degradation 24 h: Average Dmax %” value was “A (A (>90% degradation))” and the DC50 was 10 to 50 nM.
